System: MV-4-11 cells
Experiment: Gene expression microarray analysis (Affymetrix PrimeView) and GSEA
Type: cell-based, human
Parameters: RFU PODN (11730768_x_at) / Fold change /veh PODN (11730768_x_at) / RFU LINC00158 (11744669_a_at) / Fold change /veh LINC00158 (11744669_a_at) / RFU DUSP10 (11751237_a_at) / Fold change /veh DUSP10 (11751237_a_at) / RFU ID3 (11757404_x_at) / Fold change /veh ID3 (11757404_x_at) / RFU PLEKHG5 (11737974_s_at) / Fold change /veh PLEKHG5 (11737974_s_at) / RFU LRRC4B (11730491_at) / Fold change /veh LRRC4B (11730491_at) / RFU GIMAP4 (11747438_a_at) / Fold change /veh GIMAP4 (11747438_a_at) / RFU KRT8 (11758183_x_at) / Fold change /veh KRT8 (11758183_x_at) / RFU CNN1 (11734310_a_at) / Fold change /veh CNN1 (11734310_a_at) / RFU VPS37D (11726825_at) / Fold change /veh VPS37D (11726825_at) / RFU C10orf10 (11716522_x_at) / Fold change /veh C10orf10 (11716522_x_at) / RFU KIR2DL2 /// KIR2DL4 /// KIR2DL5A /// KIR2DL5B /// KIR2DS1 /// KIR2DS2 /// KIR2DS3 /// KIR2DS4 /// KIR3DL3 /// KIR3DL3 /// KIR3DS1 (11738374_at) / Fold change /veh KIR2DL2 /// KIR2DL4 /// KIR2DL5A /// KIR2DL5B /// KIR2DS1 /// KIR2DS2 /// KIR2DS3 /// KIR2DS4 /// KIR3DL3 /// KIR3DL3 /// KIR3DS1 (11738374_at) / RFU C1QL1 (11718748_at) / Fold change /veh C1QL1 (11718748_at) / RFU TMPRSS4 (11747572_a_at) / Fold change /veh TMPRSS4 (11747572_a_at) / RFU HAMP (11756126_x_at) / Fold change /veh HAMP (11756126_x_at) / RFU RNFT2 (11725882_a_at) / Fold change /veh RNFT2 (11725882_a_at) / RFU NR4A2 (11747474_a_at) / Fold change /veh NR4A2 (11747474_a_at) / RFU ABCC12 (11746883_a_at) / Fold change /veh ABCC12 (11746883_a_at) / RFU TMEM136 (11760407_x_at) / Fold change /veh TMEM136 (11760407_x_at) / RFU CLDN22 /// WWC2 (11732394_at) / Fold change /veh CLDN22 /// WWC2 (11732394_at) / RFU HLA-DPB1 (11760878_x_at) / Fold change /veh HLA-DPB1 (11760878_x_at) / RFU SPINT1 (11716480_a_at) / Fold change /veh SPINT1 (11716480_a_at) / RFU GAP43 (11754022_s_at) / Fold change /veh GAP43 (11754022_s_at) / RFU A4GNT (11735810_at) / Fold change /veh A4GNT (11735810_at) / RFU PRB3 (11715151_x_at) / Fold change /veh PRB3 (11715151_x_at) / RFU TUBB4B (11761932_at) / Fold change /veh TUBB4B (11761932_at) / RFU CAPN14 (11732068_a_at) / Fold change /veh CAPN14 (11732068_a_at) / RFU TMCC2 (11721928_a_at) / Fold change /veh TMCC2 (11721928_a_at) / RFU IRGQ (11745062_a_at) / Fold change /veh IRGQ (11745062_a_at) / RFU FAM174B (11720279_a_at) / Fold change /veh FAM174B (11720279_a_at) / RFU TMPRSS4 (11748680_a_at) / Fold change /veh TMPRSS4 (11748680_a_at) / RFU FAM212B (11763350_a_at) / Fold change /veh FAM212B (11763350_a_at) / RFU PLEKHG5 (11743358_a_at) / Fold change /veh PLEKHG5 (11743358_a_at) / RFU ZSCAN30 (11745921_a_at) / Fold change /veh ZSCAN30 (11745921_a_at) / RFU CMKLR1 (11741424_a_at) / Fold change /veh CMKLR1 (11741424_a_at) / RFU LOC101060620 /// MAPK8IP1 (11723275_at) / Fold change /veh LOC101060620 /// MAPK8IP1 (11723275_at) / RFU SPTSSB (11747773_x_at) / Fold change /veh SPTSSB (11747773_x_at) / RFU PRSS12 (11739890_at) / Fold change /veh PRSS12 (11739890_at) / RFU BIN1 (11741810_x_at) / Fold change /veh BIN1 (11741810_x_at) / RFU WNT11 (11732464_a_at) / Fold change /veh WNT11 (11732464_a_at) / RFU C10orf10 (11716521_a_at) / Fold change /veh C10orf10 (11716521_a_at) / RFU C5orf56 (11738089_at) / Fold change /veh C5orf56 (11738089_at) / RFU CYB561 (11721691_x_at) / Fold change /veh CYB561 (11721691_x_at) / RFU ANKRD19P (11752326_a_at) / Fold change /veh ANKRD19P (11752326_a_at) / RFU OR2T12 /// OR2T33 /// OR2T8 (11738714_s_at) / Fold change /veh OR2T12 /// OR2T33 /// OR2T8 (11738714_s_at) / RFU VCAN (11748164_a_at) / Fold change /veh VCAN (11748164_a_at) / RFU JSRP1 (11732532_at) / Fold change /veh JSRP1 (11732532_at) / RFU KRTAP10-11 (11738290_x_at) / Fold change /veh KRTAP10-11 (11738290_x_at) / RFU MYO3A (11730013_a_at) / Fold change /veh MYO3A (11730013_a_at) / RFU EBF3 (11725865_a_at) / Fold change /veh EBF3 (11725865_a_at) / RFU CAMK2N1 (11719241_x_at) / Fold change /veh CAMK2N1 (11719241_x_at) / RFU C5orf56 (11738088_a_at) / Fold change /veh C5orf56 (11738088_a_at) / RFU OLFML3 (11715873_a_at) / Fold change /veh OLFML3 (11715873_a_at) / RFU LOC100653217 /// NTM (11731650_a_at) / Fold change /veh LOC100653217 /// NTM (11731650_a_at) / RFU MAPK11 (11762145_a_at) / Fold change /veh MAPK11 (11762145_a_at) / RFU FIZ1 (11724087_x_at) / Fold change /veh FIZ1 (11724087_x_at) / RFU OASL (11726364_x_at) / Fold change /veh OASL (11726364_x_at) / RFU SOX15 (11748057_x_at) / Fold change /veh SOX15 (11748057_x_at) / RFU CD79A (11719716_a_at) / Fold change /veh CD79A (11719716_a_at) / RFU HIST1H1D (11736915_at) / Fold change /veh HIST1H1D (11736915_at) / RFU CASKIN2 (11723855_a_at) / Fold change /veh CASKIN2 (11723855_a_at) / RFU LOC730098 (11760151_x_at) / Fold change /veh LOC730098 (11760151_x_at) / RFU OR4N2 (11742367_at) / Fold change /veh OR4N2 (11742367_at) / RFU PRRT2 (11749266_a_at) / Fold change /veh PRRT2 (11749266_a_at) / RFU SNX32 (11753110_a_at) / Fold change /veh SNX32 (11753110_a_at) / RFU CDHR5 (11726645_a_at) / Fold change /veh CDHR5 (11726645_a_at) / RFU RCAN1 (11760418_a_at) / Fold change /veh RCAN1 (11760418_a_at) / RFU FAM167A (11723789_a_at) / Fold change /veh FAM167A (11723789_a_at) / RFU FAM26E (11764081_at) / Fold change /veh FAM26E (11764081_at) / RFU ISYNA1 (11749810_s_at) / Fold change /veh ISYNA1 (11749810_s_at) / RFU ACY1 (11761880_at) / Fold change /veh ACY1 (11761880_at) / RFU 11764098_at / Fold change /veh 11764098_at / RFU SAMD14 (11745864_x_at) / Fold change /veh SAMD14 (11745864_x_at) / RFU NPB (11741838_a_at) / Fold change /veh NPB (11741838_a_at) / RFU TMPRSS6 (11731388_a_at) / Fold change /veh TMPRSS6 (11731388_a_at) / RFU KRTAP10-2 (11738614_at) / Fold change /veh KRTAP10-2 (11738614_at) / RFU ARHGAP8 /// PRR5-ARHGAP8 (11727945_x_at) / Fold change /veh ARHGAP8 /// PRR5-ARHGAP8 (11727945_x_at) / RFU KRTAP5-7 /// NADSYN1 (11734609_at) / Fold change /veh KRTAP5-7 /// NADSYN1 (11734609_at) / RFU RASL12 (11751679_a_at) / Fold change /veh RASL12 (11751679_a_at) / RFU CDKN2B (11736163_a_at) / Fold change /veh CDKN2B (11736163_a_at) / RFU PRF1 (11729649_at) / Fold change /veh PRF1 (11729649_at) / RFU, ZNF638 /// ZNF638-IT1 / Fold change vs veh, ZNF638 /// ZNF638-IT1 / RFU, PANK3 / Fold change vs veh, PANK3 / RFU, SH3YL1 / Fold change vs veh, SH3YL1 / RFU, ZEB2 / Fold change vs veh, ZEB2 / RFU, NRIP1 / Fold change vs veh, NRIP1 / RFU, PTTG1IP / Fold change vs veh, PTTG1IP / RFU, CAPN2 / Fold change vs veh, CAPN2 / RFU, MED14 / Fold change vs veh, MED14 / RFU, SNORA58 / Fold change vs veh, SNORA58 / RFU, C1orf63 / Fold change vs veh, C1orf63 / RFU, LRRFIP1 / Fold change vs veh, LRRFIP1 / RFU, NDUFAF7 / Fold change vs veh, NDUFAF7 / RFU, SLC12A2 / Fold change vs veh, SLC12A2 / RFU, IBTK / Fold change vs veh, IBTK / RFU, ESF1 / Fold change vs veh, ESF1 / Fold change vs veh, TMEM50B / RFU, TAOK1 / Fold change vs veh, TAOK1 / RFU, ACBD3 / Fold change vs veh, ACBD3 / RFU, TMA16 / Fold change vs veh, TMA16 / RFU, RWDD3 / Fold change vs veh, RWDD3 / RFU, BCAT1 / Fold change vs veh, BCAT1 / RFU, EDEM3 / Fold change vs veh, EDEM3 / RFU, TMEM33 / Fold change vs veh, TMEM33 / RFU, WDR75 / Fold change vs veh, WDR75 / RFU, AHCTF1 / Fold change vs veh, AHCTF1 / RFU, TFRC / Fold change vs veh, TFRC / RFU, ZDHHC17 / Fold change vs veh, ZDHHC17 / RFU, NOM1 / Fold change vs veh, NOM1 / RFU, ARL8B / Fold change vs veh, ARL8B / RFU, ZBTB11 / Fold change vs veh, ZBTB11 / RFU, TAMM41 / Fold change vs veh, TAMM41 / RFU, KIAA1704 /// LOC100996395 / Fold change vs veh, KIAA1704 /// LOC100996395 / RFU, ING1 / Fold change vs veh, ING1 / RFU, TRMT61B / Fold change vs veh, TRMT61B / RFU, FUBP3 / Fold change vs veh, FUBP3 / RFU, TP53 / Fold change vs veh, TP53 / RFU, TNKS2 / Fold change vs veh, TNKS2 / RFU, ZFP14 / Fold change vs veh, ZFP14 / RFU, ACTR2 / Fold change vs veh, ACTR2 / RFU, PPP3R1 / Fold change vs veh, PPP3R1 / RFU, PIK3R1 / Fold change vs veh, PIK3R1 / RFU, HNRNPA1 / Fold change vs veh, HNRNPA1 / RFU, RNF170 / Fold change vs veh, RNF170 / RFU, ZNF28 / Fold change vs veh, ZNF28 / RFU, RNGTT / Fold change vs veh, RNGTT / RFU, OGT / Fold change vs veh, OGT / RFU, BRD1 / Fold change vs veh, BRD1 / RFU, MARS / Fold change vs veh, MARS / RFU, ZNF655 / Fold change vs veh, ZNF655 / RFU, FAHD1 / Fold change vs veh, FAHD1 / RFU, BDP1 / Fold change vs veh, BDP1 / RFU, LRRCC1 / Fold change vs veh, LRRCC1 / RFU, ARID1A / Fold change vs veh, ARID1A / RFU, ZNF146 / Fold change vs veh, ZNF146 / RFU, ZNF330 / Fold change vs veh, ZNF330 / RFU, GPN3 / Fold change vs veh, GPN3 / RFU, C9orf123 / Fold change vs veh, C9orf123 / RFU, N4BP2L2 / Fold change vs veh, N4BP2L2 / RFU, ARFIP1 / Fold change vs veh, ARFIP1 / RFU, FAM179B / Fold change vs veh, FAM179B / RFU, BCL10 / Fold change vs veh, BCL10 / RFU, UHRF1BP1L / Fold change vs veh, UHRF1BP1L / RFU, BET1 / Fold change vs veh, BET1 / RFU, CNOT2 / Fold change vs veh, CNOT2 / RFU, ZNF268 / Fold change vs veh, ZNF268 / Fold change vs veh, ZNF507 / RFU, DGCR2 / Fold change vs veh, DGCR2 / RFU, WDSUB1 / Fold change vs veh, WDSUB1 / Fold change vs veh, HSP90B1 /// MIR3652 / RFU, ADSS / Fold change vs veh, ADSS / RFU, GK / Fold change vs veh, GK / RFU, ZNF148 / Fold change vs veh, ZNF148 / RFU, TAF9 / Fold change vs veh, TAF9 / RFU, SLC1A5 / Fold change vs veh, SLC1A5 / RFU, SLMO2 / Fold change vs veh, SLMO2 / RFU, ABCC4 / Fold change vs veh, ABCC4 / RFU, LOC101060439 /// RAP1B / Fold change vs veh, LOC101060439 /// RAP1B / RFU, RFX7 / Fold change vs veh, RFX7 / RFU, GTPBP10 / Fold change vs veh, GTPBP10 / RFU, CNEP1R1 / Fold change vs veh, CNEP1R1 / RFU, BIVM-ERCC5 /// ERCC5 / Fold change vs veh, BIVM-ERCC5 /// ERCC5 / RFU, ILF3 / Fold change vs veh, ILF3 / RFU 11762660_at / Fold change /veh 11762660_at / RFU VCAN (11757783_s_at) / Fold change /veh VCAN (11757783_s_at) / RFU DDX43 (11728927_at) / Fold change /veh DDX43 (11728927_at) / RFU KRT8 (11758188_x_at) / Fold change /veh KRT8 (11758188_x_at) / RFU NKD1 (11759106_at) / Fold change /veh NKD1 (11759106_at) / RFU SRD5A1 (11742802_a_at) / Fold change /veh SRD5A1 (11742802_a_at) / RFU TPSAB1 /// TPSB2 (11721975_s_at) / Fold change /veh TPSAB1 /// TPSB2 (11721975_s_at) / RFU GSTM3 (11746129_a_at) / Fold change /veh GSTM3 (11746129_a_at) / RFU IL23R (11737362_x_at) / Fold change /veh IL23R (11737362_x_at) / RFU TMEM51 (11727254_a_at) / Fold change /veh TMEM51 (11727254_a_at) / RFU PIWIL2 (11732686_x_at) / Fold change /veh PIWIL2 (11732686_x_at) / RFU ORM1 (11744905_x_at) / Fold change /veh ORM1 (11744905_x_at) / RFU CCDC152 (11743942_at) / Fold change /veh CCDC152 (11743942_at) / RFU ECM1 (11717891_a_at) / Fold change /veh ECM1 (11717891_a_at) / RFU IL23R (11748794_a_at) / Fold change /veh IL23R (11748794_a_at) / RFU TNFAIP8L3 (11732012_x_at) / Fold change /veh TNFAIP8L3 (11732012_x_at) / RFU MBOAT4 (11741988_at) / Fold change /veh MBOAT4 (11741988_at) / RFU 11764193_at / Fold change /veh 11764193_at / RFU TMEM53 (11763286_at) / Fold change /veh TMEM53 (11763286_at) / RFU MAGEB2 (11727129_at) / Fold change /veh MAGEB2 (11727129_at) / RFU TMEM200A (11744735_a_at) / Fold change /veh TMEM200A (11744735_a_at) / RFU CCDC152 (11751479_a_at) / Fold change /veh CCDC152 (11751479_a_at) / RFU FAM211A (11726209_a_at) / Fold change /veh FAM211A (11726209_a_at) / RFU RGS16 (11746705_a_at) / Fold change /veh RGS16 (11746705_a_at) / RFU VCAN (11755009_s_at) / Fold change /veh VCAN (11755009_s_at) / RFU RHOB (11743442_s_at) / Fold change /veh RHOB (11743442_s_at) / RFU RGS16 (11720943_a_at) / Fold change /veh RGS16 (11720943_a_at) / RFU RGS16 (11720944_at) / Fold change /veh RGS16 (11720944_at) / RFU, VPS4B / Fold change vs veh, VPS4B / RFU, CREB1 / Fold change vs veh, CREB1 / RFU, DNAJC13 / Fold change vs veh, DNAJC13 / RFU, GNAQ / Fold change vs veh, GNAQ / RFU, CDK5R1 / Fold change vs veh, CDK5R1 / RFU, ZRANB3 / Fold change vs veh, ZRANB3 / RFU, CUL4A / Fold change vs veh, CUL4A / RFU, CCNY / Fold change vs veh, CCNY / RFU, UFL1 / Fold change vs veh, UFL1 / RFU, COG3 / Fold change vs veh, COG3 / RFU, DIAPH2 / Fold change vs veh, DIAPH2 / RFU, SKA2 / Fold change vs veh, SKA2 / RFU, AFF3 / Fold change vs veh, AFF3 / RFU, LMF1 / Fold change vs veh, LMF1 / RFU, IPO11 / Fold change vs veh, IPO11 / RFU, DFFB / Fold change vs veh, DFFB / RFU, FOXP1 / Fold change vs veh, FOXP1 / RFU, CARD8 / Fold change vs veh, CARD8 / RFU, STRN3 / Fold change vs veh, STRN3 / RFU, ADK / Fold change vs veh, ADK / RFU, RASSF2 / Fold change vs veh, RASSF2 / RFU, WIPF1 / Fold change vs veh, WIPF1 / RFU, LARP1B / Fold change vs veh, LARP1B / RFU, RASA1 / Fold change vs veh, RASA1 / RFU, RB1 / Fold change vs veh, RB1 / RFU, PPFIA1 / Fold change vs veh, PPFIA1 / RFU, MAT2A / Fold change vs veh, MAT2A / RFU, CCT5 / Fold change vs veh, CCT5 / RFU, WDR92 / Fold change vs veh, WDR92 / RFU, CUX1 / Fold change vs veh, CUX1 / RFU, TTC7A / Fold change vs veh, TTC7A / RFU, TMEM135 / Fold change vs veh, TMEM135 / RFU, DEPTOR / Fold change vs veh, DEPTOR / RFU, CPM / Fold change vs veh, CPM / RFU, DNAJB6 / Fold change vs veh, DNAJB6 / RFU, CACNA2D3 / Fold change vs veh, CACNA2D3 / RFU, DTX4 / Fold change vs veh, DTX4 / RFU, TFCP2 / Fold change vs veh, TFCP2 / RFU, GMCL1 /// GMCL1P1 / Fold change vs veh, GMCL1 /// GMCL1P1 / RFU, AEBP2 / Fold change vs veh, AEBP2 / RFU, SNHG1 /// SNORD22 /// SNORD25 /// SNORD26 /// SNORD27 /// SNORD28 /// SNORD29 /// SNORD31 / Fold change vs veh, SNHG1 /// SNORD22 /// SNORD25 /// SNORD26 /// SNORD27 /// SNORD28 /// SNORD29 /// SNORD31 / Fold change (Aza/veh), C12orf56 (ProbeSet 11735607_a_at) / Fold change (ACY-1035/veh), C12orf56 (ProbeSet 11735607_a_at) / Fold change (Aza/veh), FGFR1OP (ProbeSet 11751329_s_at) / Fold change (ACY-1035/veh), FGFR1OP (ProbeSet 11751329_s_at) / Fold change (Aza/veh), VPS36 (ProbeSet 11739960_a_at) / Fold change (ACY-1035/veh), VPS36 (ProbeSet 11739960_a_at) / RFU SYPL1 (11715823_x_at) / Fold change /veh SYPL1 (11715823_x_at) / RFU IGFBP7 (11715501_s_at) / Fold change /veh IGFBP7 (11715501_s_at) / RFU REEP3 (11722064_at) / Fold change /veh REEP3 (11722064_at) / RFU IGLL1 (11728026_x_at) / Fold change /veh IGLL1 (11728026_x_at): dose or concentration left out as unconfirmed
Settings: ProbeSet 11730252_s_at; LIST B

Nc1ccc(-c2cccs2)cc1NC(=O)c1ccc2c(c1)cc(C1CC1)n2CCN1CCOCC1 [ACY-1035]
RFU, AHCTF1: 224.50 RFU

Reference: PMC5218480 (PLoS ONE, 2017)
